This test addresses Neuraminidase (Influenza A virus, UniProt B4URF0). As to the kind of experiment: Inhibition of Influenza A virus neuraminidase activity.

One may read the IC50 as the concentration that inhibits the measured activity by half. Low values mean greater potency, high ones weaker potency.

Where only a bound is given, the exact number is not on record here.

Neuraminidase, sequence (B4URF0 whole entry): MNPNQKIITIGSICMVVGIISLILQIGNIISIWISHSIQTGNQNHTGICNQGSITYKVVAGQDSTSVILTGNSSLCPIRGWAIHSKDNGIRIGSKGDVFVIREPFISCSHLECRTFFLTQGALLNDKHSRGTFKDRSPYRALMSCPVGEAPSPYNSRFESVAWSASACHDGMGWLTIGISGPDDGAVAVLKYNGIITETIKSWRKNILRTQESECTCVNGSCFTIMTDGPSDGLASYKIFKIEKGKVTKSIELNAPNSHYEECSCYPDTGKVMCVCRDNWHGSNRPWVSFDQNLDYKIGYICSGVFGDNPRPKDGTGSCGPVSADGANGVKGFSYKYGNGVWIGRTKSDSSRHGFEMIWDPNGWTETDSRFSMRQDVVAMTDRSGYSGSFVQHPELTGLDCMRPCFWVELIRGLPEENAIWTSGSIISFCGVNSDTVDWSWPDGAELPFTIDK

As for `COc1cc(Cl)nc(NC(=S)NC(=O)c2ccc(Cl)nc2)n1`, the IC50 was more than 20000 nM.

The compound `CC(C)(C)NC(=O)NC(=S)NC(=O)c1c(F)cccc1F` returned a half-inhibitory concentration (IC50) of 1430 nM. The value for `Cc1cc(O)nc(NC(=S)NC(=O)c2ccc(-c3ccc([N+](=O)[O-])cc3)o2)n1` was 360 nM; that for `COc1cc(C)nc(NC(=S)NC(=O)c2ccc(Cl)nc2)n1` was more than 20000 nM; that for `COc1cc(C)nc(NC(=S)NC(=O)c2ccc(-c3ccccc3Cl)o2)n1` was more than 20000 nM.

`COc1cc(OC)nc(NC(=S)NC(=O)c2ccc(-c3ccccc3Cl)o2)n1` showed a half-inhibitory concentration (IC50) of 1770 nM.

Consider `CC(C)(C)NC(=O)NC(=S)NC(=O)c1ccccc1`, for which inhibition was half-maximal at 1790 nM (IC50). The same measure for `COc1cc(C)nc(NC(=S)NC(=O)c2ccc(-c3ccc([N+](=O)[O-])cc3)o2)n1`: 1220 nM; for `CCOc1cc(Cl)nc(NC(=S)NC(=O)c2ccc(-c3ccccc3Cl)o2)n1`: more than 20000 nM; for `CCOc1cc(OCC)nc(NC(=S)NC(=O)c2cccnc2Cl)n1`: more than 20000 nM. With `CC(C)(C)NC(=O)NC(=S)NC(=O)c1ccc(-c2ccc([N+](=O)[O-])cc2)o1`, inhibition was half-maximal at 1300 nM (IC50). This counts as single-digit micromolar. The same measure for `COc1cc(OC)nc(NC(=S)NC(=O)c2cccnc2)n1`: more than 20000 nM; for `COc1cc(Cl)nc(NC(=S)NC(=O)c2cccnc2Cl)n1`: 2590 nM.

`Cc1cc(O)nc(NC(=S)NC(=O)c2ccc(Cl)nc2)n1` displayed a half-inhibitory concentration (IC50) of 8580 nM. The same measure for `CC(C)[C@H](C(=O)NC(=S)NC(=O)NC(C)(C)C)c1ccc(Cl)cc1`: 1350 nM. The same measure for `CCOc1cc(C)nc(NC(=S)NC(=O)c2ccc(-c3ccc([N+](=O)[O-])cc3)o2)n1`: 2300 nM. The same measure for `CCOc1cc(C)nc(NC(=S)NC(=O)c2ccc(-c3ccccc3Cl)o2)n1`: 1650 nM; for `CC(C)(C)NC(=O)NC(=S)NC(=O)COc1ccc(Cl)cc1Cl`: 1670 nM.

`Cc1cc(C)nc(NC(=S)NC(=O)c2cccnc2Cl)n1`: the concentration for half-maximal inhibition (IC50) stood at 7190 nM. The same measure for `CC(C)(C)NC(=O)NC(=S)NC(=O)c1ccc(-c2ccccc2Cl)o1`: 1420 nM.

Turning to `COc1cc(OC)nc(NC(=S)NC(=O)c2cnc(Cl)c(Cl)c2)n1`, the 50% inhibitory concentration (IC50) amounted to 18500 nM. The value for `O=C(NC(=S)Nc1nc(Cl)cc(Cl)n1)c1ccc(-c2ccccc2Cl)o1` was 14500 nM; that for `CCOc1cc(OCC)nc(NC(=S)NC(=O)c2ccc(-c3ccc([N+](=O)[O-])cc3)o2)n1` was more than 20000 nM. `CCOc1cc(OCC)nc(NC(=S)NC(=O)c2ccc(Cl)nc2)n1` had a half-inhibitory concentration (IC50) of more than 20000 nM. In the case of `Cc1cc(O)nc(NC(=S)NC(=O)c2ccc(-c3ccccc3Cl)o2)n1`, the concentration for half-maximal inhibition (IC50) is 320 nM. This counts as sub-micromolar. `COC(=O)NC(=S)NC(=O)NC(C)(C)C`: half-maximal inhibition (IC50) was put at 1830 nM. The value for `CCOc1cc(OCC)nc(NC(=S)NC(=O)c2ccc(-c3ccccc3Cl)o2)n1` was 80 nM. `CCOc1cc(Cl)nc(NC(=S)NC(=O)c2cccnc2Cl)n1` yielded an IC50 of more than 20000 nM.

Consider `COc1cc(Cl)nc(NC(=S)NC(=O)c2ccc(-c3ccccc3Cl)o2)n1`, for which inhibition was half-maximal at 1290 nM (IC50). That is a single-digit micromolar value. Take `CC(C)(C)NC(=O)NC(=S)NC(=O)[C@H]1[C@H](C=C(Cl)Cl)C1(C)C`: the IC50 worked out at 260 nM. This IC50 lies about 5-fold lower than the previous one.

`CC(C)C(C(=O)NC(=S)Nc1nc(Cl)cc(Cl)n1)c1ccc(Cl)cc1` (stereo not given) returned an IC50 of more than 20000 nM. The same measure for `COc1cc(OC)nc(NC(=S)NC(=O)C2C(/C=C(\Cl)C(F)(F)F)C2(C)C)n1` (stereo not given): 970 nM; for `CC(C)(C)NC(=O)NC(=S)NC(=O)[C@@H]1[C@H](/C=C(\Cl)C(F)(F)F)C1(C)C`: 510 nM.

In turn, `COc1cc(OC)nc(NC(=S)NC(=O)COc2ccc(Cl)cc2Cl)n1` registered an IC50 of 1890 nM. This IC50 is about 3.7-fold higher than that of the compound before.

`Cc1cc(C)nc(NC(=S)NC(=O)c2ccc(Cl)cc2F)n1` displayed an IC50 of 1360 nM. `Cc1cc(C)nc(NC(=S)NC(=O)c2ccccc2)n1` had an IC50 of 2100 nM. The same measure for `COc1cc(Cl)nc(NC(=S)NC(=O)c2ccc(Cl)cc2F)n1`: 5100 nM; for `O=C(NC(=S)Nc1nc(Cl)cc(Cl)n1)c1ccc(-c2ccc([N+](=O)[O-])cc2)o1`: 1660 nM. The same measure for `Cc1cc(C)nc(NC(=S)NC(=O)C2C(/C=C(\Cl)C(F)(F)F)C2(C)C)n1` (stereo not given): 580 nM; for `CCOc1cc(OCC)nc(NC(=S)NC(=O)C(c2ccc(Cl)cc2)C(C)C)n1` (stereo not given): 310 nM.
